Test systems include IGROV1 ovarian; K-562 leukemia; SK-MEL-2 melanoma; OVCAR-4 ovarian; NCI-H23 lung; HCC-2998 colon; HT29 colon; UACC-257 melanoma; SF-268 CNS; COLO 205 colon.
What all share (experiment): NCI-60 cell line screen, 48 h

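All cell lines were grown in 96-well plates and treated with compound for 48 hours. GI50 marks 50% less growth. TGI marks complete inhibition of growth.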

As to `CC[C@]12C=CCN3CCC4(c5cc(N=Nc6ccccc6)c(OC)cc5N(C)[C@H]4[C@@](O)(C(=O)OC)[C@@H]1OC(C)=O)[C@@H]32` (stereo not given in full), the TGI in the assay with IGROV1 ovarian came to 32.5 µM; in the assay with K-562 leukemia, 64.2 µM; in the assay on SK-MEL-2 melanoma, 31.4 µM; in the assay with OVCAR-4 ovarian it was 38.8 µM; in the assay with NCI-H23 lung, 30.5 µM; in the assay on HCC-2998 colon, 36.3 µM. Further, the TGI in the assay with HT29 colon came to 33.8 µM; in the assay with UACC-257 melanoma, 34.9 µM; with SF-268 CNS it was 33 µM; in the assay on COLO 205 colon it was 77.1 µM.

Consider `CCCCCc1cc2c(cc1O)CC[C@@H]1[C@@H]2CC[C@]2(C)[C@@H](O)CC[C@@H]12`, for which the TGI in the assay with IGROV1 ovarian amounted to 36.9 µM; in the assay on K-562 leukemia, 34.9 µM; with SK-MEL-2 melanoma, 43.5 µM; in the assay with OVCAR-4 ovarian, 42.8 µM; in the assay on NCI-H23 lung, 40.3 µM; in the assay with HCC-2998 colon, 40 µM. Besides, the TGI in the assay on HT29 colon is 41.2 µM; with UACC-257 melanoma it was 43.1 µM; in the assay on SF-268 CNS, 38.9 µM; with COLO 205 colon it was 29.6 µM.

As for `O=c1[nH]c(=O)n(C2OC(COP(=O)(O)OP(=O)(O)O)C(O)C2O)cc1F` (stereo not given), the TGI in the assay with IGROV1 ovarian is over 50 µM; in the assay with K-562 leukemia it was over 50 µM; with SK-MEL-2 melanoma it was over 50 µM; with OVCAR-4 ovarian it was over 26.3 µM; in the assay on NCI-H23 lung, over 50 µM; with HCC-2998 colon, over 50 µM. Also, the TGI with HT29 colon, in the assay on UACC-257 melanoma, in the assay on SF-268 CNS and with COLO 205 colon was over 50 µM in each case.

As for `O=C(CC(O)(C(F)(F)F)C(F)(F)F)C(CCCl)C(O)(C(F)(F)F)C(F)(F)F` (stereo not given), the TGI in the assay with IGROV1 ovarian is over 100 µM; in the assay with K-562 leukemia, over 100 µM; in the assay with SK-MEL-2 melanoma, over 100 µM; in the assay with OVCAR-4 ovarian, over 100 µM; in the assay on NCI-H23 lung, 83.9 µM; in the assay on HCC-2998 colon, over 100 µM. Moreover, the TGI is 91.5 µM in the assay on HT29 colon, 91.2 µM in the assay with UACC-257 melanoma, over 100 µM in the assay with SF-268 CNS and 26.8 µM in the assay with COLO 205 colon.

Consider `CC1=C(C(=O)OCCc2ccc([N+](=O)[O-])cc2)C(c2ccccc2[N+](=O)[O-])C(C(=O)OC(C)C)=C(C)N1` (stereo not given), for which the TGI in the assay on IGROV1 ovarian was over 100 µM; in the assay with K-562 leukemia, over 100 µM; in the assay with SK-MEL-2 melanoma it was 40.9 µM; in the assay on OVCAR-4 ovarian, over 100 µM; with NCI-H23 lung, over 100 µM; in the assay with HCC-2998 colon, over 100 µM. The TGI with HT29 colon, with UACC-257 melanoma, in the assay with SF-268 CNS and in the assay with COLO 205 colon was over 100 µM in each case.

`CN1CCn2c(Br)ccc2C1=O`: the TGI in the assay with IGROV1 ovarian, in the assay with K-562 leukemia, in the assay with SK-MEL-2 melanoma, in the assay with OVCAR-4 ovarian, in the assay with NCI-H23 lung and in the assay on HCC-2998 colon was over 100 µM throughout. The TGI with HT29 colon, with UACC-257 melanoma, in the assay on SF-268 CNS and in the assay on COLO 205 colon was over 100 µM throughout.

With `CC(CCC(=O)O)[C@H]1CCC2[C@H]3C(CC[C@@]21C)[C@@]1(C)CCC(O)C[C@H]1C[C@@H]3O` (stereo not given in full), the TGI with IGROV1 ovarian, in the assay on K-562 leukemia, in the assay with SK-MEL-2 melanoma, in the assay with OVCAR-4 ovarian, in the assay with NCI-H23 lung and with HCC-2998 colon was over 100 µM each time. Also, the TGI with HT29 colon, in the assay on UACC-257 melanoma, in the assay with SF-268 CNS and in the assay on COLO 205 colon was over 100 µM each time.

Regarding `OC1CCCC1C(O)(C(F)(F)F)C(F)(F)F` (stereo not given), the TGI with IGROV1 ovarian, in the assay on K-562 leukemia, in the assay on SK-MEL-2 melanoma, in the assay on OVCAR-4 ovarian, with NCI-H23 lung and with HCC-2998 colon was over 100 µM throughout. For the same compound, the TGI in the assay on HT29 colon, in the assay with UACC-257 melanoma, in the assay on SF-268 CNS and in the assay on COLO 205 colon was over 100 µM in each case.

For the compound `N#Cc1c(NC(=O)c2ccccc2)sc2c1CCC(=O)C2`, the GI50 in the assay with IGROV1 ovarian is 1.59 µM; in the assay on K-562 leukemia it was 0.467 µM; in the assay with SK-MEL-2 melanoma, 2.45 µM; with OVCAR-4 ovarian, 0.806 µM; in the assay with NCI-H23 lung it was 0.768 µM; in the assay on HCC-2998 colon, 1.82 µM. For the same compound, the GI50 in the assay with HT29 colon is 0.747 µM; in the assay on UACC-257 melanoma it was 1.59 µM; with SF-268 CNS it was 2.59 µM; with COLO 205 colon, 1.93 µM. For the same compound, the TGI in the assay with IGROV1 ovarian is 11 µM; in the assay on K-562 leukemia it was over 100 µM; in the assay with SK-MEL-2 melanoma, 8.65 µM; in the assay on OVCAR-4 ovarian it was 2.49 µM; in the assay on NCI-H23 lung it was 6.99 µM; with HCC-2998 colon, 10.3 µM. Besides, the TGI in the assay on HT29 colon is over 100 µM; in the assay on UACC-257 melanoma it was 5.49 µM; with SF-268 CNS it was 38.4 µM; with COLO 205 colon it was 4.46 µM.

In the case of `CCN(CC)CCO/N=C1\CC[C@H]2[C@@H]3CC=C4C[C@@H](O)CC[C@]4(C)[C@H]3CC[C@]12C`, the TGI in the assay with IGROV1 ovarian was over 100 µM; with K-562 leukemia, 30.7 µM; with SK-MEL-2 melanoma, 48.4 µM; with OVCAR-4 ovarian, 71.1 µM; in the assay with NCI-H23 lung, 33.4 µM; in the assay on HCC-2998 colon, 31.7 µM. In addition, the TGI in the assay on HT29 colon is 22.5 µM; in the assay with UACC-257 melanoma it was 30.4 µM; in the assay with SF-268 CNS, over 100 µM; in the assay on COLO 205 colon, 26.1 µM.

As to `O=C(O)/C=C(/CC(=O)O)C(=O)O`, the TGI with IGROV1 ovarian was 42.2 µM; with K-562 leukemia, 42.6 µM; in the assay with SK-MEL-2 melanoma, 41.9 µM; in the assay on OVCAR-4 ovarian it was 65.3 µM; in the assay with NCI-H23 lung it was 57.2 µM; in the assay on HCC-2998 colon, 90.4 µM. In addition, the TGI was 59.2 µM in the assay with HT29 colon, over 100 µM with UACC-257 melanoma, 40 µM with SF-268 CNS and 38.6 µM with COLO 205 colon.

For `O=C(C1=C(C(=O)c2ccccc2)SC2(S1)C(C(=O)c1ccccc1)=C(C(=O)c1ccccc1)Sc1c2ssc1=O)c1ccccc1`, the TGI in the assay on IGROV1 ovarian, in the assay on K-562 leukemia, with SK-MEL-2 melanoma, with OVCAR-4 ovarian, in the assay with NCI-H23 lung and in the assay with HCC-2998 colon was over 100 µM in each case. Further, the TGI in the assay with HT29 colon, with UACC-257 melanoma, in the assay with SF-268 CNS and with COLO 205 colon was over 100 µM each time.

On to `Cc1nnc2cc(C(=O)O)c3ccccc3n2c1=O`, for which the TGI in the assay on IGROV1 ovarian, in the assay with K-562 leukemia, in the assay on SK-MEL-2 melanoma, in the assay with OVCAR-4 ovarian, in the assay on NCI-H23 lung and in the assay on HCC-2998 colon was over 10 µM each time. Further, the TGI in the assay with HT29 colon, in the assay with UACC-257 melanoma, with SF-268 CNS and in the assay with COLO 205 colon was over 10 µM each time.

On to `CN(C)CCOC(=O)COc1ccc(Cl)cc1`, for which the TGI in the assay with IGROV1 ovarian, in the assay with K-562 leukemia, in the assay on SK-MEL-2 melanoma, in the assay with OVCAR-4 ovarian, in the assay on NCI-H23 lung and in the assay with HCC-2998 colon was over 100 µM throughout. Further, the TGI with HT29 colon, with UACC-257 melanoma, with SF-268 CNS and in the assay on COLO 205 colon was over 100 µM throughout.

Regarding `CC(C)CCC[C@@H](C)[C@H]1CC[C@H]2[C@@H]3CC=C4C[C@@H](OC(=O)c5cccc6c(=O)c7ccccc7[nH]c56)CC[C@]4(C)[C@H]3CC[C@]12C`, the TGI with IGROV1 ovarian, in the assay on K-562 leukemia, in the assay with SK-MEL-2 melanoma, in the assay on OVCAR-4 ovarian, in the assay with NCI-H23 lung and in the assay on HCC-2998 colon was over 75 µM throughout. Also, the TGI in the assay on HT29 colon, in the assay on UACC-257 melanoma, in the assay on SF-268 CNS and with COLO 205 colon was over 75 µM throughout.

In the case of `O=C(N/N=C\c1cccc2ccccc12)Nc1ccc([N+](=O)[O-])cc1`, the TGI with IGROV1 ovarian was over 100 µM; in the assay with K-562 leukemia, over 100 µM; in the assay with SK-MEL-2 melanoma it was over 68.7 µM; in the assay with OVCAR-4 ovarian, over 71.6 µM; with NCI-H23 lung, over 60.2 µM; in the assay on HCC-2998 colon it was over 70.3 µM. Moreover, the TGI in the assay with HT29 colon was over 100 µM; in the assay on UACC-257 melanoma, over 100 µM; in the assay with SF-268 CNS it was over 88.9 µM; in the assay on COLO 205 colon it was over 60.7 µM.

With `Cn1c(=O)c2c(-c3ccccc3)onc2n(C)c1=O`, the TGI in the assay with IGROV1 ovarian is 55.3 µM; in the assay on K-562 leukemia it was over 100 µM; with SK-MEL-2 melanoma, 81.8 µM; with OVCAR-4 ovarian, over 100 µM; in the assay on NCI-H23 lung it was 41.6 µM; in the assay with HCC-2998 colon it was 90.2 µM. Also, the TGI with HT29 colon, in the assay on UACC-257 melanoma, in the assay with SF-268 CNS and in the assay with COLO 205 colon was over 100 µM in each case.

On to `CC1(C)COC(c2cccc(C3=NC(C)(C)CO3)c2Br)=N1`, for which the TGI in the assay on IGROV1 ovarian, in the assay on K-562 leukemia, in the assay on SK-MEL-2 melanoma, in the assay with OVCAR-4 ovarian, with NCI-H23 lung and in the assay on HCC-2998 colon was over 100 µM each time. Moreover, the TGI with HT29 colon, in the assay with UACC-257 melanoma, with SF-268 CNS and in the assay on COLO 205 colon was over 100 µM throughout.

Consider `CC(=O)N(CN1C(=O)CCC1C(=O)O)c1ccccc1` (stereo not given), for which the TGI with IGROV1 ovarian, in the assay with K-562 leukemia, with SK-MEL-2 melanoma, in the assay on OVCAR-4 ovarian, with NCI-H23 lung and in the assay with HCC-2998 colon was over 100 µM throughout. For the same compound, the TGI in the assay with HT29 colon, with UACC-257 melanoma, in the assay on SF-268 CNS and in the assay on COLO 205 colon was over 100 µM throughout.

`CCOC(=O)c1ccc(C(=O)C(C(C)=O)C(=O)OC(C)(C)C)n1C` (stereo not given): the TGI in the assay on IGROV1 ovarian, in the assay on K-562 leukemia, in the assay with SK-MEL-2 melanoma, in the assay on OVCAR-4 ovarian, in the assay with NCI-H23 lung and with HCC-2998 colon was over 100 µM throughout. Besides, the TGI in the assay on HT29 colon, in the assay on UACC-257 melanoma, in the assay with SF-268 CNS and with COLO 205 colon was over 100 µM in each case.

The values above are taken from PubChem BioAssay (NCI).
